Molecules are shown by their SMILES.

What all share (assay): Chequerboard MIC/synergy testing of zidovudine and doxycycline, log phase bacteria
Common to all, as to format: cell-based

The test system of test [1] is BAA2469 NDM-1 Escherichia coli. Conditions: strain BAA2469, doxycycline alone. The protocol:
(§1) Synergy in the context of antimicrobial drugs is measured in a number of ways that conform to the generally accepted opinion that “synergy is an effect greater than additive”. One of the ways to assess whether synergy has been observed is to use the “chequerboard” technique. This is a well-accepted method that leads to the generation of a value called the fractional inhibitory concentration index (FICI). Orhan et al., J. Clin. Microbiol. 2005, 43(1):140 describes the chequerboard method and analysis in the paragraph bridging pages 140-141, and explains that the FICI value is a ratio of the sum of the MIC (Minimum Inhibitory Concentration) level of each individual component alone and in the mixture. The combination is considered synergistic when the ΣFIC is ≤0.5, indifferent when the ΣFIC is >0.5 but <4.0, and antagonistic when the ΣFIC is >4.0.
(§2) The chequerboard method used in Example 1 followed the protocols detailed in Antimicrob Chemo (2013) 68, 374-384. Zidovudine and doxycycline were obtained from commercially available sources. The bacteria used were BAA2469 NDM-1 Escherichia coli, BAA2470 NDM-1 Klebsiella pneumoniae, BAA2471 NDM-1 Escherichia coli, BAA2472 NDM-1 Klebsiella pneumoniae, and NCTC13443 NDM-1 Klebsiella pneumoniae. All strains were obtained from a commercial source and log phase growth of the bacteria was carried out using methods known in the art.
(§3) The effects of the combination of the present invention were examined by calculating the fractional inhibitory concentration index (FICI) of each combination, as follows:
(§4) (MIC of drug A,tested in combination)/(MIC of drug A,tested alone)+(MIC of drug B,tested in combination)/(MIC of drug B,tested alone).
(§5) The interaction of the combination was defined as showing synergy if the FICI was […], no interaction if the FICI was >0.5 but <4.0 and antagonism if the FICI was >4.0.

Test [2] relates to BAA2470 NDM-1 Klebsiella pneumoniae. The conditions noted are these: strain BAA2470, doxycycline alone. The protocol: as §1, §2, §3, §4, §5
For test [3], the system named is NCTC13443 NDM-1 Klebsiella pneumoniae. The conditions noted are these: strain NCTC13443, doxycycline alone. The protocol: as §1, §2, §3, §4, §5
The test system of test [4] is BAA2471 NDM-1 Escherichia coli. The conditions noted are these: BAA2471, read-out: MIC Doxycycline. The protocol: as §1, §2, §3, §4, §5
Test [5] has as its system BAA2472 NDM-1 Klebsiella pneumoniae. Conditions: BAA2472, read-out: MIC Doxycycline. The method, then:
as §1, §2, §3, §4, §5

In general, MIC refers to the smallest concentration in the dilution series that meets the test's criterion for growth inhibition. On to `C[C@H]1c2cccc(O)c2C(=O)C2=C(O)[C@]3(O)C(=O)C(C(N)=O)=C(O)[C@@H](N(C)C)[C@@H]3[C@@H](O)[C@@H]21` [Doxycycline, (4S,4aR,5S,5aR,6R,12aR)-4-(dimethylamino)-1,5,10,11,12a-pentahydroxy-6-methyl-3,12-dioxo-4a,5,5a,6-tetrahydro-4H-tetracene-2-carboxamide], for which the MIC in test [1] was 64 mg/L; in test [2] it was 64 mg/L; in test [3] it was 32 mg/L; in test [4], 32 mg/L; in test [5], 16 mg/L.

The record behind these values is patent US20240197767A1, “COMBINATION OF ZIDOVUDINE WITH A TETRACYCLINE ANTIBIOTIC” (Helperby Therapeutics Limited, priority 2019, published 2024).
